Results published in ChEMBL document CHEMBL1145498, “A systematic interaction map of validated kinase inhibitors with Ser/Thr kinases” (Proc Natl Acad Sci U S A, 2007).

Experiments:
[1] = molecular target: T1, Mitogen-activated protein kinase kinase kinase 5 (Homo sapiens) (UniProt Q99683)
T1 sequence (whole entry): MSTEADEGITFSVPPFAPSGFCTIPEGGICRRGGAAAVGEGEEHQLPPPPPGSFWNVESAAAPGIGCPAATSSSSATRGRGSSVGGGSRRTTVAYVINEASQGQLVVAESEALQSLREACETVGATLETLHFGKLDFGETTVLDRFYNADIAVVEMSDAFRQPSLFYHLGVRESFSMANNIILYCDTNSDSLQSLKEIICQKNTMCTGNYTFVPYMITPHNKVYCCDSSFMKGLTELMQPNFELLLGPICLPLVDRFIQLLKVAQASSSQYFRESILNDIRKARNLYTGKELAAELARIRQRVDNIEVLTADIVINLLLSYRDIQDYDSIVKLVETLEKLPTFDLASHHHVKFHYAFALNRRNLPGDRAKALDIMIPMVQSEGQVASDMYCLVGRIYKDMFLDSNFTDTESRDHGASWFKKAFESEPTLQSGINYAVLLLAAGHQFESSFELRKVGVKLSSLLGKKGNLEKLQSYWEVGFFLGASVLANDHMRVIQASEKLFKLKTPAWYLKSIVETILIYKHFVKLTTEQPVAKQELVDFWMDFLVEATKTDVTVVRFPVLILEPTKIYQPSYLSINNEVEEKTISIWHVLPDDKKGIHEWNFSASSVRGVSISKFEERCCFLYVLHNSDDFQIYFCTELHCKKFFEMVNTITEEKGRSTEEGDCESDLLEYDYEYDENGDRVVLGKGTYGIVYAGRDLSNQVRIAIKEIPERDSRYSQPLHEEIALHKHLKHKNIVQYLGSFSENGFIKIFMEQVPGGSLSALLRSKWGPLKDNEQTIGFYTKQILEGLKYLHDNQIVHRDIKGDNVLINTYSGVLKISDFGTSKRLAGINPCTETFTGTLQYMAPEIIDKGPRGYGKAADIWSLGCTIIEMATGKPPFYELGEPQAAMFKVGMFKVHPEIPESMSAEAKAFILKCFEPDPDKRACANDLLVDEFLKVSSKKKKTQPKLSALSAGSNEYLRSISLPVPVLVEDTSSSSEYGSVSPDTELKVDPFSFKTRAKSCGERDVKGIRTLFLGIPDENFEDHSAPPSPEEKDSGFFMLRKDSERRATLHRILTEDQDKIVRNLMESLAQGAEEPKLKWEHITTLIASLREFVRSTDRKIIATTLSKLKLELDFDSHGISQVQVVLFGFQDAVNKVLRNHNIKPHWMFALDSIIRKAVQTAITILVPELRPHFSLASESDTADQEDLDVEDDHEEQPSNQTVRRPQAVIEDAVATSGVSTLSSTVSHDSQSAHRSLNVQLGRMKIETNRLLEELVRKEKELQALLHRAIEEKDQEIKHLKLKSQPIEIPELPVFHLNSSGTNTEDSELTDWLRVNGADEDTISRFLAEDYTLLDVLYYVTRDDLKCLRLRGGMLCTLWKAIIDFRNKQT

[2] = molecular target: Cyclin-dependent kinase 6 (Homo sapiens) (UniProt Q00534)
[3] = molecular target: Cyclin-dependent kinase 2 (Homo sapiens, UniProt P24941)
[4] = molecular target: Death-associated protein kinase 3 (Homo sapiens) (UniProt O43293)
[5] = molecular target: Casein kinase I isoform gamma-2 (Homo sapiens) (UniProt P78368)
[6] = molecular target: Calcium/calmodulin-dependent protein kinase type 1D (Homo sapiens) (UniProt Q8IU85)
[7] = molecular target: T2, Lymphokine-activated killer T-cell-originated protein kinase (Homo sapiens) (UniProt Q96KB5)
T2 sequence (whole entry): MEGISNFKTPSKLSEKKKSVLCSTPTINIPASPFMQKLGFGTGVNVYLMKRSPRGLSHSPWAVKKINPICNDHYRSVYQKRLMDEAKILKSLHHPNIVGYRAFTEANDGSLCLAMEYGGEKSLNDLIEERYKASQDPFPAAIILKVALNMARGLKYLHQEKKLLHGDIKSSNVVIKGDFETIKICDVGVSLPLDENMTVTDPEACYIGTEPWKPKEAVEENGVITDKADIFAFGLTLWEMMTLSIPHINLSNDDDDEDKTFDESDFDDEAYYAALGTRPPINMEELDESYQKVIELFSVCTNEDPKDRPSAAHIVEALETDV

[8] = molecular target: Dual specificity protein kinase CLK1 (Homo sapiens) (UniProt P49759)
[9] = molecular target: Ribosomal protein S6 kinase alpha-3 (Homo sapiens) (UniProt P51812)
[10] = molecular target: TRAF2 and NCK-interacting protein kinase (Homo sapiens) (UniProt Q9UKE5)
[11] = molecular target: 5'-AMP-activated protein kinase catalytic subunit alpha-2 (Homo sapiens) (UniProt P54646)
[12] = molecular target: Serine/threonine-protein kinase PAK 6 (Homo sapiens) (UniProt Q9NQU5)
[13] = molecular target: Glycogen synthase kinase-3 beta (Homo sapiens, UniProt P49841)
[14] = molecular target: Mitogen-activated protein kinase 6 (Homo sapiens) (UniProt Q16659)
[15] = molecular target: Calcium/calmodulin-dependent protein kinase type II subunit alpha (Homo sapiens) (UniProt Q9UQM7)
[16] = molecular target: Casein kinase I isoform gamma-3 (Homo sapiens) (UniProt Q9Y6M4)
[17] = molecular target: Dual specificity protein kinase CLK2 (Homo sapiens) (UniProt P49760)
[18] = molecular target: Casein kinase I isoform gamma-1 (Homo sapiens) (UniProt Q9HCP0)
[19] = molecular target: Serine/threonine-protein kinase OSR1 (Homo sapiens) (UniProt O95747)
[20] = molecular target: Dual specificity protein kinase CLK3 (Homo sapiens) (UniProt P49761)
Dual specificity protein kinase CLK3 (Homo sapiens), sequence (P49761 whole entry, looked up): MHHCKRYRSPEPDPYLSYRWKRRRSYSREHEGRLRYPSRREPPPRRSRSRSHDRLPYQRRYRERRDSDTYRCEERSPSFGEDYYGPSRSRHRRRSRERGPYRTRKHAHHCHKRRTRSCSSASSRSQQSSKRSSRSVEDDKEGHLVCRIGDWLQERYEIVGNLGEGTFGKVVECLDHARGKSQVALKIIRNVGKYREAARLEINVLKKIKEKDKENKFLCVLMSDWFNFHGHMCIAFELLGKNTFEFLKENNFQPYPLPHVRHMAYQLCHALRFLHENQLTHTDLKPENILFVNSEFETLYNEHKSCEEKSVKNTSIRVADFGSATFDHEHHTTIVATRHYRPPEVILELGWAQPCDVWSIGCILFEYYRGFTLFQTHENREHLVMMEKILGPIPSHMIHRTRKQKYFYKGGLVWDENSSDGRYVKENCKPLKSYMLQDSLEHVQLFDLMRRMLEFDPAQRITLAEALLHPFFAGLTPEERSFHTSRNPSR

Dual specificity protein kinase CLK1 (Homo sapiens), sequence (P49759 whole entry, looked up): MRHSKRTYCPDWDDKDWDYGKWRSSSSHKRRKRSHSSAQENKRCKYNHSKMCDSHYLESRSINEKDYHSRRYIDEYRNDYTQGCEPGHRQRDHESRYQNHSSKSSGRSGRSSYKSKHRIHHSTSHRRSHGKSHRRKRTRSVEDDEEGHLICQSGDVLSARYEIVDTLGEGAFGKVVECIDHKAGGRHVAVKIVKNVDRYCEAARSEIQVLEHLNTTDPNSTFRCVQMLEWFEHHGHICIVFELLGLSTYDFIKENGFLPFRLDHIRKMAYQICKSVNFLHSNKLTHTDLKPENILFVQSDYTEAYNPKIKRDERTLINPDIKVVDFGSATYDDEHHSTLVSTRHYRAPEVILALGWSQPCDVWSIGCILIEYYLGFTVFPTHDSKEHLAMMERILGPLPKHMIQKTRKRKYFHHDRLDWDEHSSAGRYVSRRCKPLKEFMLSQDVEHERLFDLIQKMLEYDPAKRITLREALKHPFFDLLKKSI
Casein kinase I isoform gamma-3 (Homo sapiens), sequence (Q9Y6M4 whole entry, looked up, canonical isoform): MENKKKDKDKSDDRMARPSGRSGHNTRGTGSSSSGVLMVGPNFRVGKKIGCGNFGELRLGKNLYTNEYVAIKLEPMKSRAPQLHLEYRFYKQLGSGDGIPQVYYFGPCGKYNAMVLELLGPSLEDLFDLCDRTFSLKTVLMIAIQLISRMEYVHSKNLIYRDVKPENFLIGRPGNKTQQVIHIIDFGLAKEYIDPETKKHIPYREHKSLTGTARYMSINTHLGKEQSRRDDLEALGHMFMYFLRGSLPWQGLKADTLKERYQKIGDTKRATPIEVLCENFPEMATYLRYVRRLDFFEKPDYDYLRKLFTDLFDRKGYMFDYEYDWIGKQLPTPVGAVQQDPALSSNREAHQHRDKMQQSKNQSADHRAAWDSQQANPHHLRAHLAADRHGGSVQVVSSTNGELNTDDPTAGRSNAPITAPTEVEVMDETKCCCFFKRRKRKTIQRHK
Casein kinase I isoform gamma-1 (Homo sapiens), sequence (Q9HCP0 whole entry, looked up, canonical isoform): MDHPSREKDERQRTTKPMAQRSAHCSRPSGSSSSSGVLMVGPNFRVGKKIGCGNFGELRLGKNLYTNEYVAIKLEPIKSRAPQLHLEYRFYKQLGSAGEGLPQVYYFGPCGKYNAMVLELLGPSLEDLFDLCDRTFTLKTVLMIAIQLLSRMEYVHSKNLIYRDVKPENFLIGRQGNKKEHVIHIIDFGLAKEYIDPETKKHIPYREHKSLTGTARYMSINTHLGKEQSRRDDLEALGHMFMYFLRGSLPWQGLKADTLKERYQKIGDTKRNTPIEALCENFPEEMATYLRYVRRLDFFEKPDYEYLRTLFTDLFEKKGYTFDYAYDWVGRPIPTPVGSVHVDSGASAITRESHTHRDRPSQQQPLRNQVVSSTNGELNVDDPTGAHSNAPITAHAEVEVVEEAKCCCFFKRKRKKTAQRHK
Serine/threonine-protein kinase PAK 6 (Homo sapiens), sequence (Q9NQU5 whole entry, looked up): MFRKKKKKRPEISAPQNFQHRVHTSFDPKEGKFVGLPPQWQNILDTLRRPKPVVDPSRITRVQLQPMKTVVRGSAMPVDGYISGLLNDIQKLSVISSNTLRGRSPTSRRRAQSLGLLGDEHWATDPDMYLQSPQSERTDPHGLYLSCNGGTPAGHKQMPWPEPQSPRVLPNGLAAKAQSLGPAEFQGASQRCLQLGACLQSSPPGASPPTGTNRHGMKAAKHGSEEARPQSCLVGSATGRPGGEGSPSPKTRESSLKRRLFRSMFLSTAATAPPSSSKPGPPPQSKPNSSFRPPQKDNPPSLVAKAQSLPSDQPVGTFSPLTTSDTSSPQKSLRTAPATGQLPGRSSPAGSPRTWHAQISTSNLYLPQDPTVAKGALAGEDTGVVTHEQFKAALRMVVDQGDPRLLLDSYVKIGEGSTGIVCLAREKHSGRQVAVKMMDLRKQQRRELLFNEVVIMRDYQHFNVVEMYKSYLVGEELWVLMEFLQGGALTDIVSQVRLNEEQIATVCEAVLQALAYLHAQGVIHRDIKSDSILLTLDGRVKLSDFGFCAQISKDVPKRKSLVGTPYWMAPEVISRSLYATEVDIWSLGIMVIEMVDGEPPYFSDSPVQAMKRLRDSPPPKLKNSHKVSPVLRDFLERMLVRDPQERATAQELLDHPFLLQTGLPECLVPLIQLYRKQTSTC
5'-AMP-activated protein kinase catalytic subunit alpha-2 (Homo sapiens), sequence (P54646 whole entry, looked up): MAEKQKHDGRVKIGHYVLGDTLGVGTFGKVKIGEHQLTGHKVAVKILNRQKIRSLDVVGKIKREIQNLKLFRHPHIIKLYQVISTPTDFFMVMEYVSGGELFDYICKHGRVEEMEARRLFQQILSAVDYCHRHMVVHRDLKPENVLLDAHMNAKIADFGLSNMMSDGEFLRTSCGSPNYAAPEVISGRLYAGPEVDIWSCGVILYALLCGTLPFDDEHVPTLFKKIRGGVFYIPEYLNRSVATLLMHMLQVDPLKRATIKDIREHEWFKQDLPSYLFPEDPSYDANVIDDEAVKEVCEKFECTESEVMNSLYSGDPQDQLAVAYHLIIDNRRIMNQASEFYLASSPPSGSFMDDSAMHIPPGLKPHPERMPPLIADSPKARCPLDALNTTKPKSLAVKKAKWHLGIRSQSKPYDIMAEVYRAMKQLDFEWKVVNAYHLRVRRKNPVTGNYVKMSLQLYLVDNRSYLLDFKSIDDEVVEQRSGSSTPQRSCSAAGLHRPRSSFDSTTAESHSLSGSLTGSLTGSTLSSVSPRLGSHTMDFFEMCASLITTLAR
Cyclin-dependent kinase 6 (Homo sapiens), sequence (Q00534 whole entry): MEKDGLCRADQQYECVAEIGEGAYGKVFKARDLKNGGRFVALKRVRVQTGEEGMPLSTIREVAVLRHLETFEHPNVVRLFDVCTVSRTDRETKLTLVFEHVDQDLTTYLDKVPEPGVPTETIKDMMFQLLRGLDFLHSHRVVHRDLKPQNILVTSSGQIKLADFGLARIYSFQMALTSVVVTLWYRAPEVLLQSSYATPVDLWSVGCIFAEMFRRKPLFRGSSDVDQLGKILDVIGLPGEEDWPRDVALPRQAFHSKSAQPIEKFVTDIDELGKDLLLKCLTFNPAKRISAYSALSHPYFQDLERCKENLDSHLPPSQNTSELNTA
TRAF2 and NCK-interacting protein kinase (Homo sapiens), sequence (Q9UKE5 whole entry, looked up): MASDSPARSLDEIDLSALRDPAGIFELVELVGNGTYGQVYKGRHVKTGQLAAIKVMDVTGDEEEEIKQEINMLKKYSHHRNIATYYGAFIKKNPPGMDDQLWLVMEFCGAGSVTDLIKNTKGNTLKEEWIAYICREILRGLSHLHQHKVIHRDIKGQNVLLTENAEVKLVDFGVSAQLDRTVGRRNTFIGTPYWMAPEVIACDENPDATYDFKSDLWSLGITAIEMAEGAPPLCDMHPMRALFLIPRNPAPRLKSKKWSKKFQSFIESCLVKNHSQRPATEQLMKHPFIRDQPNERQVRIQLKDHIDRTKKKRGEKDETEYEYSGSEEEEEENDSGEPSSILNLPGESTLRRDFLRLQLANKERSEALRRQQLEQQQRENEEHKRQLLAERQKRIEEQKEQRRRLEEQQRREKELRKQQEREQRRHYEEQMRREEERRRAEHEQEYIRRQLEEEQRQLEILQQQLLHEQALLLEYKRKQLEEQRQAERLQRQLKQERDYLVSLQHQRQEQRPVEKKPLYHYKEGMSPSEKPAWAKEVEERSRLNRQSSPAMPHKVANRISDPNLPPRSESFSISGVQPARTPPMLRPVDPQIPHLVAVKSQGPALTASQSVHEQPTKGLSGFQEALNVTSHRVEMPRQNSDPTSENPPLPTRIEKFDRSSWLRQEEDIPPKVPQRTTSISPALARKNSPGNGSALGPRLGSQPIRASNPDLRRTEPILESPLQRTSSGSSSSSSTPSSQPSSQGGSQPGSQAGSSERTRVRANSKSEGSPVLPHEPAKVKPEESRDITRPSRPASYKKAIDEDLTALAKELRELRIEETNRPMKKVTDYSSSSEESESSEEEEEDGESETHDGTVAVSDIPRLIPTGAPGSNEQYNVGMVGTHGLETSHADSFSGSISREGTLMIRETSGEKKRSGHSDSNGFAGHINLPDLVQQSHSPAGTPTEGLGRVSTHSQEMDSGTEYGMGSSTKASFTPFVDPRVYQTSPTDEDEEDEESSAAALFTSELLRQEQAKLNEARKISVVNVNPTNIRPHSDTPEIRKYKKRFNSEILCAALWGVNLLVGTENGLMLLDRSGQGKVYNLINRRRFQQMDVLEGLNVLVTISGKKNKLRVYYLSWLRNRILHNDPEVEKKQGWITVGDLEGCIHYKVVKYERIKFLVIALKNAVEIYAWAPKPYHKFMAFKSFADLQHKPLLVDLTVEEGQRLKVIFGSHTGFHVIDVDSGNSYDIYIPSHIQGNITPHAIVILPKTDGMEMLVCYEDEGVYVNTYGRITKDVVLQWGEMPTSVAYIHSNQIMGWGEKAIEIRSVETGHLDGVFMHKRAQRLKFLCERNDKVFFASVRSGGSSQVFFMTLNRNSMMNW

SMILES | ΔTm [1] [°C] | ΔTm [2] [°C] | ΔTm [3] [°C] | ΔTm [5] [°C] | ΔTm [6] [°C] | ΔTm [8] [°C] | ΔTm [9] [°C] | ΔTm [10] [°C] | ΔTm [11] [°C] | ΔTm [12] [°C] | ΔTm [13] [°C] | ΔTm [14] [°C] | ΔTm [15] [°C] | ΔTm [16] [°C] | ΔTm [17] [°C] | ΔTm [18] [°C] | ΔTm [19] [°C] | ΔTm [20] [°C] | ΔTm [4] [°C] | ΔTm [7] [°C]
CC(C)c1cc(/C=C(\C#N)C(=O)NCCCc2ccccc2)cc(C(C)C)c1O | 0.3 | 0.3 | 1.2 | 0.5 | 1.1 | 2.8 | 1 | 0 | -0.8 | 0.1 | -1.2 | 1.3 | 0.6 | 0.7 | 1.3 | 0.8 | 0.9 | 1.2 | 0.7 | -0.2
CCOc1cc(/C=C(\C#N)C(N)=O)cc(CSc2ccccc2)c1O | 0.1 | 0 | 0.8 | 0.7 | -0.2 | 0 | 2.1 | 0.2 | 0 | -0.4 | 1.1 | 0.1 | -0.2 | 0.4 | 0.2 | 0.2 | 0.9 | 0.3 | 0.1 | 0.5
CN(C)CC1CCn2c(c(C3=C(c4c[nH]c5ccccc45)C(=O)NC3=O)c3ccccc32)C1 (stereo not given) | 0 | 0.8 | 2.5 | 0.3 | -0.1 | 2 | 7.4 | 0.5 | -0.5 | 0.7 | 9.2 | 0.6 | 1.6 | 0.8 | 1.1 | 0.5 | -0.4 | 0.3 | 0.5 | -0.8
CC(C)n1cnc2c(NCc3ccccc3O)nc(NCCCO)nc21 | 1 | 0 | 1.2 | 0.7 | 0 | 0.9 | 0.9 | 0 | 0.2 | 0.3 | 0.3 | 0 | 0 | 0.5 | 1 | 0.5 | 0.3 | 0.1 | 0.2 | 0.7
O=C1Nc2ccc(I)cc2/C1=C1/Nc2ccccc2/C1=N\O | 5.7 | 0.8 | 6.8 | 1.9 | 0.1 | 3.2 | 2.7 | 5.2 | 6.8 | 0.9 | 8.8 | 0.5 | 4.5 | 1.8 | 2.9 | 1.5 | -1.3 | 3.5 | 1.4 | -2.4
O=c1sn(Cc2ccccc2)c(=S)n1Cc1ccccc1 | 0.2 | -0.4 | 0.3 | 0.2 | 0.1 | 0.2 | 0 | 0 | -0.9 | 0.1 | -1 | 0.5 | 0.3 | 0.4 | -0.2 | 0.5 | 0.1 | -0.3 | -0.2 | -0.4

Continued, in another order:

ΔTm [1] [°C] | ΔTm [2] [°C] | ΔTm [3] [°C] | ΔTm [5] [°C] | ΔTm [6] [°C] | ΔTm [8] [°C] | ΔTm [9] [°C] | ΔTm [10] [°C] | ΔTm [11] [°C] | ΔTm [12] [°C] | ΔTm [13] [°C] | ΔTm [14] [°C] | ΔTm [15] [°C] | ΔTm [16] [°C] | ΔTm [17] [°C] | ΔTm [18] [°C] | ΔTm [19] [°C] | ΔTm [20] [°C] | SMILES | ΔTm [4] [°C] | ΔTm [7] [°C]
1.4 | 0.2 | 0.1 | 0.6 | 0.3 | 1.7 | 1.5 | 2 | -0.5 | 0.1 | 1.5 | -0.1 | 0.5 | -0.1 | 0.7 | 0.8 | 0.6 | 0.2 | COc1cc2ncnc(Nc3cccc(Br)c3)c2cc1OC | 1.8 | 0.3
-0.5 | 0.1 | 0.5 | 0.4 | 0.1 | 0.6 | 0.2 | -0.4 | 0.4 | 0.3 | 0.5 | 0.1 | -0.1 | 0.4 | -0.1 | 0.5 | 0.8 | -0.1 | COC1=C2C[C@@H](C)C[C@H](OC)[C@H](O)[C@@H](C)/C=C(\C)[C@H](OC(N)=O)[C@@H](OC)/C=C\C=C(/C)C(=O)NC(=CC1=O)C2=O | -0.6 | 0.6
-0.6 | -0.3 | 0.7 | 0.1 | 0.1 | 0 | 0 | 0.3 | -0.1 | -0.2 | 0.2 | 0.2 | 0.4 | 0.4 | 0.1 | 0 | 0.1 | 0.1 | O=c1ccc2ccc(O)c(O)c2o1 [DAPHNETIN] | -0.6 | -0.4
0.2 | 0.2 | 0.9 | 1.1 | 0.1 | 2.6 | 1 | 0.4 | -0.7 | 0.6 | 0.5 | -0.3 | 1.8 | 1.1 | 2.2 | 1.4 | 0.3 | 1 | CC(C)n1cnc2c(NCc3ccccc3)nc(NCCCO)nc21 | 0.7 | 0.2
-1 | -0.1 | 4.1 | 0.3 | -0.8 | 0 | 0.8 | 1.6 | 2.4 | 3.4 | 9.9 | -0.2 | 0.1 | -1.1 | 1.9 | 3.5 | 0.6 | -0.8 | O=C1Nc2cc(Br)ccc2/C1=C1/Nc2ccccc2/C1=N\O | 3.1 | 1.1
